Each structure is given as a SMILES string. Where two headings read alike, the source gives them in different places.

The test system of assay [1] is MKN45 cells. The assay is described as follows: MKN45 cell proliferation assay (Cell-Titer-Glo, 120 h). Format: cell-based. To be noted: for EC50: Homo sapiens, MKN-45, 120 h, Cell-Titer-Glo, read-out: MKN45 Cell Prolif. 120 hr (EC50); for MKN45 Cell Prolif. 120 hr (Ymin-Obs): minimal percent of DMSO control observed in the concentrations tested. The method, boiled down: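 Growth inhibition was read as blank-corrected Cell-Titer-Glo luminescence expressed as percent DMSO control after 120 h at 37 C, 400 cells/well. Compounds tested in triplicate as 10-point half-log series from 1 or 10 uM, 0.1% DMSO; four-parameter fit gave EC50, and lowest observed percent control was reported as Ymin-obs.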

In assay [2] the target is T1, WEE1 (Homo sapiens, UniProt P30291+Q96SW2).
T1 construct: C-terminal ePL-tagged (DiscoverX, Fremont, CA) full-length WEE1 expression construct; expressed in transfected cells; host or cells: LentiX-HEK293T (Invitrogen), lentiviral transduction; co-expressing GSPT1-GN (G576N, lacking the first 158 amino acids)
Put plainly: WEE1-ePL degradation assay (LentiX-WEE1-ePL-GSPT1-ND cells, InCELL Hunter luminescence, 4 h). Format: cell-based. To be noted: 293T-LentiX WEE1-ePL cells; for DC50: read-out: 293T-LentiX WEE1-ePL Degradation 4 hr (EC50). The method, boiled down:
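LentiX-HEK293T cells stably expressing C-terminally ePL-tagged full-length WEE1 were treated with compounds in a 10-point, 3-fold dilution series starting at 1 uM or 10 uM for 4 h at 37 °C. Remaining WEE1-ePL was detected by InCELL Hunter luminescence, and EC50, Ymin and Ymax came from a four-parameter logistic fit against DMSO control.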

Setting [3] is: lower limit of the fit (0 = luciferase inhibitor, Ymax = DMSO control).
The mark [4] stands for this setting: lower limit of the fit (Ymin=0 luciferase inhibitor, Ymax DMSO control).

In the case of `Cc1ccc2c(F)c(CN3CC[C@H](Oc4ccc5c(c4)CN(C4CCC(=O)NC4=O)C5=O)C3)ccc2n1` (stereo partly drawn) [3-(5-{[(3S)-1-[(5-fluoro-2-methylquinolin-6-yl)methyl]pyrrolidin-3-yl]oxy}-1-oxo-2,3-dihydro-1H-isoindol-2-yl)piperidine-2,6-dione], the EC50 in assay [1] (growth inhibition) amounted to 8.08 nM. Besides, the “MKN45 Cell Prolif. 120 hr (Ymin-Obs)” value in assay [1] stood at 9.22. The “293T-LentiX WEE1-ePL Degradation 4 hr (Ymin)” value in assay [2] (setting [3]) is given as 28.365. In assay [2], the DC50 came to 1.51 nM.

On to `Cn1cc2cc(CN3CC[C@H](Oc4ccc5c(c4)CN(C4CCC(=O)NC4=O)C5=O)C3)ccc2n1` (stereo partly drawn) [3-(5-{[(3S)-1-[(2-methyl-2H-indazol-5-yl)methyl]pyrrolidin-3-yl]oxy}-1-oxo-2,3-dihydro-1H-isoindol-2-yl)piperidine-2,6-dione], for which the EC50 in assay [1] (growth inhibition) was above 10000 nM. In addition, the “MKN45 Cell Prolif. 120 hr (Ymin-Obs)” value in assay [1] is given as 81.985. Besides, the “293T-LentiX WEE1-ePL Degradation 4 hr (Ymin)” value in assay [2] (setting [3]) came out at 52. Moreover, the DC50 in assay [2] stood at 40.5 nM.

In the case of `O=C1CCC(N2Cc3cc(O[C@H]4CCN(Cc5cc(-c6cccc(C7=CCOCC7)c6)ccn5)C4)ccc3C2=O)C(=O)N1` (stereo partly drawn) [3-(5-{[(3S)-1-({4-[3-(3,6-dihydro-2H-pyran-4-yl)phenyl]pyridin-2-yl}methyl)pyrrolidin-3-yl]oxy}-1-oxo-2,3-dihydro-1H-isoindol-2-yl)piperidine-2,6-dione], the EC50 in assay [1] (growth inhibition) was determined as 0.738 nM. Besides, the “MKN45 Cell Prolif. 120 hr (Ymin-Obs)” value in assay [1] turned out to be 7.53. For the same molecule, the “293T-LentiX WEE1-ePL Degradation 4 hr (Ymin)” value in assay [2] (setting [3]) came out at 28. For the same molecule, in assay [2], the DC50 was 2 nM.

In the case of `COCc1ccc2cc(CN3CC[C@H](Oc4ccc5c(c4)CN(C4CCC(=O)NC4=O)C5=O)C3)ncc2c1` (stereo partly drawn) [3-(5-{[(3S)-1-{[7-(methoxymethyl)isoquinolin-3-yl]methyl}pyrrolidin-3-yl]oxy}-1-oxo-2,3-dihydro-1H-isoindol-2-yl)piperidine-2,6-dione], the EC50 in assay [1] (growth inhibition) came out at 2.85 nM. Besides, in assay [1], the “MKN45 Cell Prolif. 120 hr (Ymin-Obs)” value came to 8.95. Besides, the “293T-LentiX WEE1-ePL Degradation 4 hr (Ymin)” value in assay [2] (setting [3]) was 30. Moreover, the DC50 in assay [2] was 1.42 nM.

Take `O=C1CC[C@H](N2Cc3cc(O[C@H]4CCN(Cc5cc6cnc(N7CCOCC7)nc6cc5F)C4)ccc3C2=O)C(=O)N1` [(3S)-3-(5-{[(3S)-1-{[7-fluoro-2-(morpholin-4-yl)quinazolin-6-yl]methyl}pyrrolidin-3-yl]oxy}-1-oxo-2,3-dihydro-1H-isoindol-2-yl)piperidine-2,6-dione]: in assay [1], the EC50 was 15.2 nM and the “MKN45 Cell Prolif. 120 hr (Ymin-Obs)” value amounted to 10.84. Moreover, the “293T-LentiX WEE1-ePL Degradation 4 hr (Ymin)” value in assay [2] (setting [4]) came to 36.02. For the same molecule, in assay [2], the DC50 came to 14.7 nM.

Consider `CC(=O)N1CCC(c2ncc3cc(CN4CC[C@H](Oc5ccc6c(c5)CN([C@H]5CCC(=O)NC5=O)C6=O)C4)ccc3n2)CC1` [(3S)-3-(5-{[(3S)-1-{[2-(1-acetylpiperidin-4-yl)quinazolin-6-yl]methyl}pyrrolidin-3-yl]oxy}-1-oxo-2,3-dihydro-1H-isoindol-2-yl)piperidine-2,6-dione], for which, in assay [1], the EC50 amounted to 13.8 nM and the “MKN45 Cell Prolif. 120 hr (Ymin-Obs)” value is 9.035. For the same molecule, in assay [2] (setting [4]), the “293T-LentiX WEE1-ePL Degradation 4 hr (Ymin)” value is listed as 36.09. The DC50 in assay [2] was 35.8 nM.

`Cc1ncc2ccc(CN3CC[C@H](Oc4ccc5c(c4)CN(C4CCC(=O)NC4=O)C5=O)C3)cc2n1` (stereo partly drawn) [3-(5-{[(3S)-1-[(2-methylquinazolin-7-yl)methyl]pyrrolidin-3-yl]oxy}-1-oxo-2,3-dihydro-1H-isoindol-2-yl)piperidine-2,6-dione]: the EC50 in assay [1] (growth inhibition) was determined as 365 nM. The “MKN45 Cell Prolif. 120 hr (Ymin-Obs)” value in assay [1] came to 32.41. For the same molecule, in assay [2] (setting [3]), the “293T-LentiX WEE1-ePL Degradation 4 hr (Ymin)” value amounted to 35.02. The DC50 in assay [2] worked out at 65.5 nM.

For the molecule `CC1(C)COCCN1c1ccc2cc(CN3CC[C@H](Oc4ccc5c(c4)CN(C4CCC(=O)NC4=O)C5=O)C3)ccc2n1` (stereo partly drawn) [3-(5-{[(3S)-1-{[2-(3,3-dimethylmorpholin-4-yl)quinolin-6-yl]methyl}pyrrolidin-3-yl]oxy}-1-oxo-2,3-dihydro-1H-isoindol-2-yl)piperidine-2,6-dione], the EC50 in assay [1] (growth inhibition) was determined as 2.08 nM. In addition, the “MKN45 Cell Prolif. 120 hr (Ymin-Obs)” value in assay [1] was 9.02. Moreover, the “293T-LentiX WEE1-ePL Degradation 4 hr (Ymin)” value in assay [2] (setting [3]) was found to be 34. For the same molecule, the DC50 in assay [2] amounted to 2.84 nM.

In general, EC50 refers to the midpoint of the concentration-response curve.

The values are drawn from US20240067632A1, “WEE1 Degrading Compounds and Uses Thereof” (Bristol-Myers Squibb Company, priority 2022, published 2024).
